Where “and” joins values, the source holds several entries; their conditions need not be identical. Equal values may be shown once.
Tested on: Rattus norvegicus
Settings: subchronic, duration: 90 days, oral, gavage
[1] = F, Crl:CD(SD), Blood: Activated Partial Thromboplastin Time (APTT) + Blood: Cholesterol (CHOL), Total + Blood: Fluoride (Plasma) + Blood: Hematocrit (HCT…
[2] = F, Crl:CD(SD), Blood: Activated Partial Thromboplastin Time (APTT) + Blood: Hematocrit (HCT) + Blood: Hemoglobin (HGB) + Blood: Red Blood Cell (RBC) + …
[3] = F, Crl:CD(SD), Blood: Cholesterol (CHOL), Total + Kidney: Kidney Weight, Absolute + Kidney: Kidney Weight, Relative + Kidney: Kidney Weight, Relative to …
[4] = F, Crl:CD(SD), Blood: Fluoride (Plasma), Recovery + Blood: Inorganic Phosphorous (PHOS) + Calcium (CA) + Kidney: Blood Urea Nitrogen (BUN), Blood + Kidney…
[5] = F, Crl:CD(SD), General Toxicity: Whole Body: Body Weight Change + General Toxicity: Whole Body: Clinical Observations + General Toxicity: Whole Body: …
[6] = F, Crl:CD(SD), Hematologic: Blood: Activated Partial Thromboplastin Time (APTT) + Hematologic: Blood: Hematocrit (HCT) + Hematologic: Blood: Hemoglobin (…
[7] = F, Crl:CD(SD), Kidney: Kidney Weight, Absolute + Liver: Liver Histopathology + Liver: Liver Weight, Absolute + Renal: Urinalysis, Unspecified
[8] = F, Crl:CD(SD), Other Systems: Eye: Ophthalmology + Other Systems: Nasal Cavity: Nasal Cavity/Tubinates Inflammation, Chronic, Focal/Multifocal + Other …
[9] = F, Crl:CD(SD), Pancreas: Pancreas Histopathology
[10] = F, Sprague-Dawley, Hematologic: Blood: Activated Partial Thromboplastin Time (APTT) + Hematologic: Blood: Hematocrit (HCT) + Hematologic: Blood: Hemoglobin (…
[11] = M, Crl:CD(SD), Blood: Activated Partial Thromboplastin Time (APTT) + Blood: Albumin/Globulin (A/G) Ratio + Blood: Fluoride (Plasma) + Blood: Hematocrit (…
[12] = M, Crl:CD(SD), Blood: Activated Partial Thromboplastin Time (APTT) + Blood: Hematocrit (HCT) + Blood: Hemoglobin (HGB) + Blood: Red Blood Cell (RBC) + …
[13] = M, Crl:CD(SD), Blood: Fluoride (Plasma), Recovery + Blood: Hematocrit (HCT) + Blood: Hemoglobin (HGB) + Liver: Liver, Biliary Hyperplasia + Liver: Liver, …
[14] = M, Crl:CD(SD), Blood: Inorganic Phosphorous (PHOS) + Blood: Potassium (K), Blood + Kidney: Blood Urea Nitrogen (BUN), Blood + Kidney: Kidney Weight, …
[15] = M, Crl:CD(SD), Blood: Inorganic Phosphorous (PHOS), Blood + Blood: Potassium (K), Blood + Epididymis: Epididymis Weight, Relative + Kidney: Blood Urea …
[16] = M, Crl:CD(SD), Blood: Total Protein (TP), Blood + Kidney: Kidney Histopathology + Kidney: Kidney Weight, Absolute + Liver: Total Bilirubin (TBILI), Blood…
[17] = M, Crl:CD(SD), General Toxicity: Whole Body: Body Weight Change + General Toxicity: Whole Body: Clinical Observations + General Toxicity: Whole Body: …
[18] = M, Crl:CD(SD), Hematologic: Blood: Activated Partial Thromboplastin Time (APTT) + Hematologic: Blood: Hematocrit (HCT) + Hematologic: Blood: Hemoglobin (…
[19] = M, Sprague-Dawley, Hematologic: Blood: Activated Partial Thromboplastin Time (APTT) + Hematologic: Blood: Hematocrit (HCT) + Hematologic: Blood: Hemoglobin (…

How did the NEL (F, Crl:CD(SD), Adrenal: Adrenal Gland Weight, Absolute + Adrenal: Adrenal Gland Weight, Relative + Blood: Basophils + Blood: Calcium (CA), Blood + Blood: …) turn out when `OCCC(F)(F)C(F)(F)C(F)(F)C(F)(F)C(F)(F)C(F)(F)F` [2-(Perfluorohexyl)ethanol] was run?
Its NEL is 250 mg/kg-day.

And the LEL [1]?
The LEL was 125 mg/kg-day.

And the NEL [1]?
Its NEL is 25 mg/kg-day.

What about the LEL [2] of the same compound?
The LEL was 125 mg/kg-day.

And the NEL [2]?
The NEL was 25 mg/kg-day.

What about the LEL [3] of the same compound?
The LEL was 25 mg/kg-day.

And the NEL [3]?
Its NEL is 5 mg/kg-day.

And the LEL [4]?
Its LEL is 250 mg/kg-day.

And the NEL [4]?
Its NEL is 125 mg/kg-day.

What about the NEL (F, Crl:CD(SD), Blood: Inorganic Phosphorous (PHOS) + Blood: Triglycerides (TRIG) + Calcium (CA) + Kidney: Blood Urea Nitrogen (BUN), Blood + Kidney: …) of the same compound?
The NEL was 250 mg/kg-day.

What about the LOAEL (F, Crl:CD(SD), Cardiovascular: Heart: Heart Weight, Absolute + Cardiovascular: Heart: Heart Weight, Relative + Endocrine: Adrenal: Adrenal Gland Weight, …) of the same compound?
Its LOAEL is 25 mg/kg-day.

And the LOAEL [5]?
The LOAEL was 125 mg/kg-day.

What about the NOAEL [5] of the same compound?
Its NOAEL is 25 mg/kg-day.

What about the LOAEL [6] of the same compound?
The LOAEL was 25 mg/kg-day.

And the NOAEL [6]?
Its NOAEL is 5 mg/kg-day.

What about the LEL [7] of the same compound?
Its LEL is 25 mg/kg-day.

What about the NEL [7] of the same compound?
The NEL was 5 mg/kg-day.

And the LOAEL [8]?
Its LOAEL is 250 mg/kg-day.

And the NOAEL [8]?
The NOAEL was 125 mg/kg-day.

What about the LEL [9] of the same compound?
The LEL was 250 mg/kg-day.

What about the NEL [9] of the same compound?
Its NEL is 125 mg/kg-day.

What about the LOAEL [10] of the same compound?
Its LOAEL is 25 mg/kg-day.

And the NOAEL [10]?
The NOAEL was 5 mg/kg-day.

What about the NOAEL (F, Sprague-Dawley, Other Systems: Tooth: Tooth Discoloration + Other Systems: Tooth: Tooth Discoloration, Recovery + Other Systems: Tooth: Tooth Findings, …) of the same compound?
The NOAEL was 250 mg/kg-day.

What about the NEL (M, Crl:CD(SD), Adrenal: Adrenal Gland Weight, Absolute + Adrenal: Adrenal Gland Weight, Relative + Blood: Basophils + Blood: Calcium (CA), Blood + Blood: …) of the same compound?
The NEL was 250 mg/kg-day.

And the LEL [11]?
Its LEL is 25 mg/kg-day.

And the NEL [11]?
Its NEL is 5 mg/kg-day.

What about the LEL [12] of the same compound?
Its LEL is 25 mg/kg-day.

What about the NEL [12] of the same compound?
Its NEL is 5 mg/kg-day.

And the LEL [13]?
The LEL was 250 mg/kg-day.

What about the NEL [13] of the same compound?
The NEL was 125 mg/kg-day.

And the LEL [14]?
The LEL was 125 mg/kg-day.

What about the NEL [14] of the same compound?
Its NEL is 25 mg/kg-day.

What about the LEL [15] of the same compound?
Its LEL is 125 mg/kg-day.

And the NEL [15]?
The NEL was 25 mg/kg-day.

What about the LEL [16] of the same compound?
Its LEL is 250 mg/kg-day.

What about the NEL [16] of the same compound?
Its NEL is 125 mg/kg-day.

And the LOAEL (M, Crl:CD(SD), Cardiovascular: Heart: Heart Weight, Absolute + Cardiovascular: Heart: Heart Weight, Relative + Endocrine: Adrenal: Adrenal Gland Weight, …)?
Its LOAEL is 25 mg/kg-day.

And the LOAEL [17]?
The LOAEL was 125 mg/kg-day.

What about the NOAEL [17] of the same compound?
The NOAEL was 25 mg/kg-day.

What about the LOAEL [18] of the same compound?
The LOAEL was 25 mg/kg-day.

What about the NOAEL [18] of the same compound?
The NOAEL was 5 mg/kg-day.

What about the LOAEL (M, Crl:CD(SD), Immune: Blood: Basophils + Immune: Blood: Eosinophils + Immune: Blood: Lymphocyte + Immune: Blood: Monocytes + Immune: Blood: Neutrophils + …) of the same compound?
The LOAEL was 250 mg/kg-day.

And the LOAEL (M, Crl:CD(SD), Other Systems: Eye: Ophthalmology + Other Systems: Nasal Cavity: Nasal Cavity/Tubinates Inflammation, Chronic, Focal/Multifocal + Other …)?
The LOAEL was 125 mg/kg-day and 250 mg/kg-day.

What about the LOAEL (M, Crl:CD(SD), Reproductive: Epididymis: Epididymis Weight, Absolute + Reproductive: Epididymis: Epididymis Weight, Relative + Reproductive: Testis: Testis…) of the same compound?
The LOAEL was 5 mg/kg-day.

And the LOAEL [19]?
Its LOAEL is 25 mg/kg-day.

What about the NOAEL [19] of the same compound?
The NOAEL was 5 mg/kg-day.

And the NOAEL (M, Sprague-Dawley, Other Systems: Blood: Potassium (K) + Other Systems: Tooth: Tooth Discoloration + Other Systems: Tooth: Tooth Discoloration, Recovery + …)?
The NOAEL was 250 mg/kg-day.
